In patent publication US11964953B2, “Substituted aminothiazoles as DGKzeta inhibitors for immune activation” (Bayer Aktiengesellschaft, priority 2020, dated 2024):

What follows are molecules tested against human DGKζ (Homo sapiens (Human), UniProt Q13574) (assay: Human DGKζ kinase activity inhibition assay (ADP-Glo)). Conditions: in vitro human DGKζ kinase activity inhibition assay; read-out: IC50.
Assay type: biochemical
Method: Human DGKζ Kinase Activity Inhibition Assay. Human diacylglycerol kinase zeta (DGKζ) inhibitory activity of compounds of the present invention was quantified employing the human DGKζ kinase activity assay as described in the following paragraphs. In essence, the enzyme activity was measured by quantification of the adenosine-di-phosphate (ADP) generated as a co-product of the enzyme reaction via the “ADP-Glo™ Kinase Assay” kit from the company Promega. This detection system works as follows: In a first step the adenosine-tri-phosphate (ATP) not consumed in the kinase reaction is quantitatively converted to cyclic adenosine-mono-phosphate (cAMP) employing an adenylate cyclase (“ADP-Glo-reagent”), then the adenylate cyclase is stopped and the ADP generated in the kinase reaction is converted to ATP, which subsequently generates in a luciferase-based reaction a glow-luminescence signal (“Kinase Detection Reagent”). C-terminally FLAG-tagged, recombinant full-length human DGKζ (in house expressed in baculovirus infected insect cells, purified using anti-Flag pulldown and size exclusion chromatography) was used as enzyme. As an alternative, commercially available enzyme by Carnabio can be used. […] Subsequently, 22.55 volumes of a 510 mM solution of octyl-β-D-glucopyranoside (Sigma-Aldrich, Cat. #O8001-10G) in 50 mM MOPS buffer (pH 7.4) were added, and the mixture was sonicated in an ultrasonic bath for 20 s. […] Viewlux™ from Perkin-Elmer). The amount of emitted light was taken as a measure for the amount of ADP generated and thereby for the activity of the DGKζ.

Chain of human DGKζ (Q13574 other isoform, or with tags, fused parts or gaps): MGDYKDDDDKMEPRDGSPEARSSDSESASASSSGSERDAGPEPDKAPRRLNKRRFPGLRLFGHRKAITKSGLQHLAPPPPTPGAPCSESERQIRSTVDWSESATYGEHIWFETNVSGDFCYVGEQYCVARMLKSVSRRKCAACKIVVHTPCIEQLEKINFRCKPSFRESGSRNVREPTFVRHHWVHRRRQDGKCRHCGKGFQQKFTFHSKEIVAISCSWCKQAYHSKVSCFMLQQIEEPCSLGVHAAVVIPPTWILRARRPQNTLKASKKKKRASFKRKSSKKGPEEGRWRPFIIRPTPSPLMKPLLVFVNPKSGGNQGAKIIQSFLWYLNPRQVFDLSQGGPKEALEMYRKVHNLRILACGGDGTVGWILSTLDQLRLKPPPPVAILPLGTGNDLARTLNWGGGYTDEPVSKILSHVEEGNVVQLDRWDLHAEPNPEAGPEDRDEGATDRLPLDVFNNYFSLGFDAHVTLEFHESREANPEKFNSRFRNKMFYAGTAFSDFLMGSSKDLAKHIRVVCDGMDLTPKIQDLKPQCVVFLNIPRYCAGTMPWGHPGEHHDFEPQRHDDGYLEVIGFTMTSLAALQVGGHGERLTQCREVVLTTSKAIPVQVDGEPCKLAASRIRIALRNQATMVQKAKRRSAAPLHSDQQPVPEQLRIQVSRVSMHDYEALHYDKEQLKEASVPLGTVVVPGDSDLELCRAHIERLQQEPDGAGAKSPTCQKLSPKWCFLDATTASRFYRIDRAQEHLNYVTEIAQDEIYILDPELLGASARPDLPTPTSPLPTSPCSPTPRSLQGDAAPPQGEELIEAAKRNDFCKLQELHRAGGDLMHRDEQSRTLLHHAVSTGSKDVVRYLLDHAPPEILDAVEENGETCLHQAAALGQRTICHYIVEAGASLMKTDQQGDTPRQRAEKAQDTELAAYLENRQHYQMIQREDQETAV

IC50 [nM]	SMILES
378	CC(C(N)=O)N(c1ccc(F)c(F)c1)c1nc(N)c(C(=O)c2ccncc2)s1 (racemic) [Example 50, rac-2-(N-[4-amino-5-(pyridine-4-carbonyl)thiazol-2-yl]-3,4-difluoro-anilino)propanamide]
99.2	COc1ccc(C(=O)c2sc(N(c3ccc(F)c(F)c3)C(C)C(N)=O)nc2N)cn1 (racemic) [Example 52, rac-2-(N-[4-amino-5-(6-methoxypyridine-3-carbonyl)thiazol-2-yl]-3,4-difluoro-anilino)propanamide]
30.8	CC(C(N)=O)N(c1ccc(F)c(F)c1)c1nc(N)c(C(=O)c2ccc(C(F)(F)F)nc2)s1 (racemic) [Example 53, rac-2-(N-[4-amino-5-[6-(trifluoromethyl)pyridine-3-carbonyl]thiazol-2-yl]-3,4-difluoro-anilino)propanamide]
9.74	Cc1nc(N(c2ccc(F)c(F)c2)C(C)C(N)=O)sc1C(=O)c1ccc(OC(F)F)cc1 (racemic) [Example 55, rac-2-(N-[5-[4-(difluoromethoxy)benzoyl]-4-methyl-thiazol-2-yl]-3,4-difluoro-anilino)propanamide]
120	CC(C(N)=O)N(c1ccc(Cl)c(F)c1)c1nc(N)c(C(=O)c2ccncc2)s1 (racemic) [Example 56, rac-2-(N-[4-amino-5-(pyridine-4-carbonyl)thiazol-2-yl]-4-chloro-3-fluoro-anilino)propanamide]
155	CC(C(N)=O)N(c1ccc(Cl)cc1)c1nc(N)c(C(=O)c2ccncc2)s1 (racemic) [Example 57, rac-2-(N-[4-amino-5-(pyridine-4-carbonyl)thiazol-2-yl]-4-chloro-anilino)propanamide]
16.7	COc1ccc(C(=O)c2sc(N(c3ccc(Cl)cc3)C(C)C(N)=O)nc2N)cc1 (racemic) [Example 58, rac-2-(N-[4-amino-5-(4-methoxybenzoyl)thiazol-2-yl]-4-chloro-anilino)propanamide]
10.3	COc1ccc(C(=O)c2sc(N(c3ccc(Cl)c(F)c3)C(C)C(N)=O)nc2N)cc1 (racemic) [Example 59, rac-2-(N-[4-amino-5-(4-methoxybenzoyl)thiazol-2-yl]-4-chloro-3-fluoro-anilino)propanamide]
403	CC(C(N)=O)N(c1ccccc1)c1nc(N)c(C(=O)c2ccccc2)s1 (racemic) [Example 60, rac-2-(N-(4-amino-5-benzoyl-thiazol-2-yl)anilino)propanamide]
93.2	CC(C(N)=O)N(c1ccc(F)cc1)c1nc(N)c(C(=O)c2ccccc2)s1 (racemic) [Example 61, rac-2-(N-(4-amino-5-benzoyl-thiazol-2-yl)-4-fluoro-anilino)propanamide]
33.9	Cc1ccc(C(=O)c2sc(N(c3ccc(F)cc3)C(C)C(N)=O)nc2N)cc1 (racemic) [Example 63, rac-2-(N-[4-amino-5-(4-methylbenzoyl)thiazol-2-yl]-4-fluoro-anilino)propanamide]
55.8	CC(C(N)=O)N(c1ccc(F)cc1)c1nc(N)c(C(=O)c2ccc(F)cc2)s1 (racemic) [Example 64, rac-2-(N-[4-amino-5-(4-fluorobenzoyl)thiazol-2-yl]-4-fluoro-anilino)propanamide]
101	CC(C(N)=O)N(c1nc(N)c(C(=O)c2ccccc2)s1)c1ccc(F)cc1F (racemic) [Example 65, rac-2-(N-(4-amino-5-benzoyl-thiazol-2-yl)-2,4-difluoro-anilino)propanamide]
363	COc1ccc(N(c2nc(N)c(C(=O)c3ccccc3)s2)C(C)C(N)=O)cc1 (racemic) [Example 66, rac-2-(N-(4-amino-5-benzoyl-thiazol-2-yl)-4-methoxy-anilino)propanamide]
2270	CCC(C(N)=O)N(c1ccccc1)c1nc(N)c(C(=O)c2ccccc2)s1 (racemic) [Example 67, rac-2-[(4-amino-5-benzoyl-1,3-thiazol-2-yl)(phenyl)amino]butanamide]
457	CCC(C(N)=O)N(c1ccc(F)cc1)c1nc(N)c(C(=O)c2ccccc2)s1 (racemic) [Example 68, rac-2-[(4-amino-5-benzoyl-1,3-thiazol-2-yl)(4-fluorophenyl)amino]butanamide]
64.1	CC(Oc1ccc(C(=O)c2sc(N(c3ccc(F)cc3)C(C)C(N)=O)nc2N)cc1)C(N)=O (racemic) [Example 69, 2-(N-[4-amino-5-[4-(2-amino-1-methyl-2-oxo-ethoxy)benzoyl]thiazol-2-yl]-4-fluoro-anilino)propanamide]
196	CCC(C(N)=O)N(c1ccc(F)cc1)c1nc(N)c(C(=O)c2ccc(OC)cc2)s1 (racemic) [Example 70, rac-2-{[4-amino-5-(4-methoxybenzoyl)-1,3-thiazol-2-yl](4-fluorophenyl)amino}butanamide]
148	Cc1ccc(N(c2nc(N)c(C(=O)c3ccccc3)s2)C(C)C(N)=O)cc1 (racemic) [Example 73, rac-2-(N-(4-amino-5-benzoyl-thiazol-2-yl)-4-methyl-anilino)propanamide]
190	CC(C(N)=O)N(c1cccc(F)c1)c1nc(N)c(C(=O)c2ccccc2)s1 (racemic) [Example 74, rac-2-(N-(4-amino-5-benzoyl-thiazol-2-yl)-3-fluoro-anilino)propanamide]
419	CC(C(N)=O)N(c1nc(N)c(C(=O)c2ccccc2)s1)c1ccccc1F (racemic) [Example 75, rac-2-(N-(4-amino-5-benzoyl-thiazol-2-yl)-2-fluoro-anilino)propanamide]
252	Cc1cccc(N(c2nc(N)c(C(=O)c3ccccc3)s2)C(C)C(N)=O)c1 (racemic) [Example 76, rac-2-(N-(4-amino-5-benzoyl-thiazol-2-yl)-3-methyl-anilino)propanamide]
533	Cc1ccccc1N(c1nc(N)c(C(=O)c2ccccc2)s1)C(C)C(N)=O (racemic) [Example 77, rac-2-(N-(4-amino-5-benzoyl-thiazol-2-yl)-2-methyl-anilino)propanamide]
7220	CC(C(N)=O)N(c1cnn(C)c1)c1nc(N)c(C(=O)c2ccccc2)s1 (racemic) [Example 78, rac-2-[(4-amino-5-benzoyl-thiazol-2-yl)-(1-methylpyrazol-4-yl)amino]propanamide]
6790	CC(C(N)=O)N(c1cccnc1)c1nc(N)c(C(=O)c2ccccc2)s1 (racemic) [Example 79, rac-2-[(4-amino-5-benzoyl-thiazol-2-yl)-(3-pyridyl)amino]propanamide]
10.8	CC(C(N)=O)N(c1ccc(F)cc1)c1nc(N)c(C(=O)c2ccc(Br)cc2)s1 (racemic) [Example 80, rac-2-(N-[4-amino-5-(4-bromobenzoyl)thiazol-2-yl]-4-fluoro-anilino)propanamide]
8.71	CCOC(=O)COc1ccc(C(=O)c2sc(N(c3ccc(F)cc3)C(C)C(N)=O)nc2N)cc1 (racemic) [Example 81, rac-ethyl 2-[4-[4-amino-2-(4-fluoro-N-[2-amino-1-methyl-2-oxo-ethyl]anilino)thiazole-5-carbonyl]phenoxy]acetate]
89.6	CC(C)NC(=O)COc1ccc(C(=O)c2sc(N(c3ccc(F)cc3)C(C)C(N)=O)nc2N)cc1 (racemic) [Example 82, rac-2-(N-[4-amino-5-[4-[2-(isopropylamino)-2-oxo-ethoxy]benzoyl]thiazol-2-yl]-4-fluoro-anilino)propanamide]
24.6	Cc1ccccc1CNC(=O)COc1ccc(C(=O)c2sc(N(c3ccc(F)cc3)C(C)C(N)=O)nc2N)cc1 (racemic) [Example 84, rac-2-(N-[4-amino-5-[4-[2-(o-tolylmethylamino)-2-oxo-ethoxy]benzoyl]thiazol-2-yl]-4-fluoro-anilino)propanamide]
667	CC(C(N)=O)N(c1ccc(F)cc1)c1nc(N)c(C(=O)c2ccc(OCC(=O)N3CCOCC3)cc2)s1 (racemic) [Example 88, rac-2-(N-[4-amino-5-[4-(2-morpholino-2-oxo-ethoxy)benzoyl]thiazol-2-yl]-4-fluoro-anilino)propanamide]

SMILES	IC50 [nM]
COc1ccc(C(=O)c2sc(N(c3ccc(F)c(F)c3)C(C)C(N)=O)nc2N)cc1 (racemic) [Example 51, rac-2-(N-[4-amino-5-(4-methoxybenzoyl)thiazol-2-yl]-3,4-difluoro-anilino)propanamide]	16.6
Cc1cccc(CNC(=O)COc2ccc(C(=O)c3sc(N(c4ccc(F)cc4)C(C)C(N)=O)nc3N)cc2)c1 (racemic) [Example 83, rac-2-(N-[4-amino-5-[4-[2-(m-tolylmethylamino)-2-oxo-ethoxy]benzoyl]thiazol-2-yl]-4-fluoro-anilino)propanamide]	24.3
CC(C(N)=O)N(c1ccc(F)cc1)c1nc(N)c(C(=O)c2ccc(OCC(=O)N3CCN(C)CC3)cc2)s1 (racemic) [Example 86, rac-2-(N-[4-amino-5-[4-[2-(4-methylpiperazin-1-yl)-2-oxo-ethoxy]benzoyl]thiazol-2-yl]-4-fluoro-anilino)propanamide]	759
Cc1cccc(NC(=O)COc2ccc(C(=O)c3sc(N(c4ccc(F)cc4)C(C)C(N)=O)nc3N)cc2)c1 (racemic) [Example 87, rac-2-(N-[4-amino-5-[4-[2-(3-methylanilino)-2-oxo-ethoxy]benzoyl]thiazol-2-yl]-4-fluoro-anilino)propanamide]	8.53
